Source: article PMC6271529, “Studies on the Anticonvulsant Activity and Influence on GABA-ergic Neurotransmission of 1,2,4-Triazole-3-thione-Based Compounds” (Molecules, 2014)
“Also recorded” adds a separate entry of the source. Where two headings read alike, the source gives them in different places.

What was measured:
[1] = test system: maximal electroshock-induced seizures; assay: Maximal electroshock-induced seizure (MES) test in mice; format: in vivo, mouse; settings: for p/t, number of animals protected against MES-induced seizures / number tested / responders at 300 mg/kg: 300 mg/kg i.p.; for responders at 300 mg/kg / ED50: Mus musculus, ip; for responders at 300 mg/kg: read-out: percent of animals protected against MES-induced seizures; for ED50: read-out: ED50 ± S.E. (MES test); for PI (TD50/ED50): protective index; for onset of action: significant protection as early as 15 min after parenteral administration
Procedure: Additionally, all efforts were made to minimize animal suffering and to use only the number of animals necessary to produce reliable scientific data.
In the initial stage of the study, groups of eight mice were supplied with the compounds (administered intraperitoneally) in a dose of 300 mg/kg and then exposed to electrical impulse at fixed intervals (15, 30, 60, 120 min).
Each mouse was used only once.
Fresh drug solutions were prepared on each day of experimentation and administered at 15, 30, 60 and 120 min. before the initiation of maximal electroconvulsions. Electroconvulsions were produced by a current (0.2 s stimulus duration; 500 V, 50 Hz, fixed current intensity of 25 mA) delivered via ear-clip electrodes by a Rodent Shocker generator (constant-current stimulator Type 221, Hugo Sachs Elektronik, Freiburg, Germany). The criterion for the occurrence of seizure activity was the tonic hind limb extension. The animals were administered with a constant dose of 300 mg/kg of each of the examined compounds and were subjected to MES-induced seizures. […] The animals were administered with different doses of the tested compounds so as to obtain a variable percentage of protection against maximal electroconvulsions, allowing the construction of dose-response relationship lines for each examined compound administered i.p. at various pretreatment times, according to Litchfield and Wilcoxon. Each ED50 value represents the dose of the studied compounds that is required to protect 50% of the animals tested against MES-induced seizures.

GABAA receptors = assay: Radioligand binding assay, [3H]muscimol, rat cerebral cortex; settings: compound 1 × 10^−6 M, [3H]muscimol, rat cerebral cortex;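 further: low percentages indicate weak binding of the compound to the receptor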
Procedure: Binding experiments were conducted in 96-well microplates in a total volume of 200 μL of appropriate buffer. The reaction mixture included 50 μL solution of test compound, 50 μL of radioligand, and […] the tissue suspension. Rat cerebral cortex was used for each receptor. […] Radioligand binding data were analyzed using iterative curve fitting routines (GraphPAD/Prism, Version 3.0, San Diego, CA, USA). Ki values were calculated from the Cheng and Prusoff equation [36].

[2] = test system: benzodiazepine (BDZ)-binding sites; assay: Radioligand binding assay, [3H]flunitrazepam, rat cerebral cortex; settings: compound 1 × 10^−6 M;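 further: low percentages indicate weak binding of the compound to the site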
Procedure: Binding experiments were conducted in 96-well microplates in a total volume of 200 μL of appropriate buffer. The reaction mixture included 50 μL solution of test compound, 50 μL of radioligand, and […] the tissue suspension. Rat cerebral cortex was used for each receptor. The radioactivity was measured in MicroBeta TriLux 1450-liquid scintillation counter (PerkinElmer, Waltham, MA, USA). Radioligand binding data were analyzed using iterative curve fitting routines (GraphPAD/Prism, Version 3.0, San Diego, CA, USA). Ki values were calculated from the Cheng and Prusoff equation [36].

[3] = pretreatment time 120 min, mice
[4] = 0.25 h, pretreatment time 15 min, mice
[5] = 0.5 h, pretreatment time 30 min, mice
[6] = 1 h, pretreatment time 60 min, mice
[7] = 2 h, pretreatment time 120 min, mice
[8] = chimney TD50 / MES ED50, pretreatment time 15 min
[9] = chimney TD50 / MES ED50, pretreatment time 30 min
[10] = chimney TD50 / MES ED50, pretreatment time 60 min
[11] = chimney TD50 / MES ED50, pretreatment time 120 min

Fc1ccccc1-n1c(-c2cccc(Cl)c2)n[nH]c1=S [Compound 1a, 5-(3-Chlorophenyl)-4-(2-fluorophenyl)-2,4-dihydro-3H-1,2,4-triazole-3-thione]
p/t, number of animals protected against MES-induced seizures / number tested ([1]; pretreatment time 15 min, mice): 0/8
p/t, number of animals protected against MES-induced seizures / number tested ([1]; pretreatment time 30 min, mice): 0/8
p/t, number of animals protected against MES-induced seizures / number tested ([1]; pretreatment time 60 min, mice): 1/8
p/t, number of animals protected against MES-induced seizures / number tested [1, 3]: 1/8
responders at 300 mg/kg [1, 4]: 0%
responders at 300 mg/kg [1, 5]: 0%
responders at 300 mg/kg [1, 6]: 12.5%
responders at 300 mg/kg [1, 7]: 12.5%
Percent of Specific Binding, GABAA (GABAA receptors): 8%
Percent of Specific Binding, BDZ [2]: 14%
melting point: 170 to 171 °C

S=c1[nH]nc(-c2cccc(Cl)c2)n1-c1ccccc1Br [Compound 5a, 4-(2-Bromophenyl)-5-(3-chlorophenyl)-2,4-dihydro-3H-1,2,4-triazole-3-thione]
p/t, number of animals protected against MES-induced seizures / number tested ([1]; pretreatment time 15 min, mice): 0/8
p/t, number of animals protected against MES-induced seizures / number tested ([1]; pretreatment time 30 min, mice): 0/8
p/t, number of animals protected against MES-induced seizures / number tested ([1]; pretreatment time 60 min, mice): 1/8
p/t, number of animals protected against MES-induced seizures / number tested [1, 3]: 1/8
responders at 300 mg/kg [1, 4]: 0%
responders at 300 mg/kg [1, 5]: 0%
responders at 300 mg/kg [1, 6]: 12.5%
responders at 300 mg/kg [1, 7]: 12.5%
Percent of Specific Binding, GABAA (GABAA receptors): 2%
Percent of Specific Binding, BDZ [2]: 12%

S=c1[nH]nc(-c2ccc(Cl)cc2)n1-c1ccc(Br)cc1 [Compound 16a, 4-(4-Bromophenyl)-5-(4-chlorophenyl)-2,4-dihydro-3H-1,2,4-triazole-3-thione]
p/t, number of animals protected against MES-induced seizures / number tested ([1]; pretreatment time 15 min, mice): 5/8
p/t, number of animals protected against MES-induced seizures / number tested ([1]; pretreatment time 30 min, mice): 7/8
p/t, number of animals protected against MES-induced seizures / number tested ([1]; pretreatment time 60 min, mice): 8/8
p/t, number of animals protected against MES-induced seizures / number tested [1, 3]: 8/8
responders at 300 mg/kg [1, 4]: 62.5%
responders at 300 mg/kg [1, 5]: 87.5%
responders at 300 mg/kg [1, 6]: 100%
responders at 300 mg/kg [1, 7]: 100%
ED50 ([1]; pretreatment time 15 min, mice): 272 ± 21.4 mg/kg
ED50 ([1]; pretreatment time 30 min, mice): 182 ± 44.3 mg/kg
ED50 ([1]; pretreatment time 60 min, mice): 153 ± 23.5 mg/kg
ED50 [1, 3]: 141 ± 25.1 mg/kg
time to peak of the anticonvulsant action ([1]; after i.p. administration, MES, mice): 120 min
PI (TD50/ED50) [1, 8]: 1.6
PI (TD50/ED50) [1, 9]: 2.6
PI (TD50/ED50) [1, 10]: 3.0
PI (TD50/ED50) [1, 11]: 2.9
onset of action ([1]; MES, mice): quick onset of action
Percent of Specific Binding, GABAA (GABAA receptors): 17%
Percent of Specific Binding, BDZ [2]: 24%

Cc1ccc(-n2c(-c3cccc(Cl)c3)nn(CN3CCOCC3)c2=S)cc1 [Compound 22a, 5-(3-Chlorophenyl)-4-(4-methylphenyl)-2-(morpholin-4-ylmethyl)-2,4-dihydro-3H-1,2,4-triazole-3-thione]
p/t, number of animals protected against MES-induced seizures / number tested ([1]; pretreatment time 15 min, mice): 4/8
p/t, number of animals protected against MES-induced seizures / number tested ([1]; pretreatment time 30 min, mice): 5/8
p/t, number of animals protected against MES-induced seizures / number tested ([1]; pretreatment time 60 min, mice): 3/8
p/t, number of animals protected against MES-induced seizures / number tested [1, 3]: 2/8
anticonvulsant activity (in words) ([1]; MES test, mice): slightly weaker than that of valproate; also recorded: weak anticonvulsant activity
responders at 300 mg/kg [1, 4]: 50%
responders at 300 mg/kg [1, 5]: 62.5%
responders at 300 mg/kg [1, 6]: 37.5%
responders at 300 mg/kg [1, 7]: 25%
ED50 ([1]; pretreatment time 15 min, mice): 224 ± 20.9 mg/kg
ED50 ([1]; pretreatment time 30 min, mice): 228 ± 14.7 mg/kg
ED50 ([1]; pretreatment time 60 min, mice): 274 ± 10.9 mg/kg
ED50 [1, 3]: 448 ± 21.4 mg/kg
PI (TD50/ED50) [1, 8]: 1.5
PI (TD50/ED50) [1, 9]: 1.4
PI (TD50/ED50) [1, 10]: 1.6
PI (TD50/ED50) [1, 11]: 1.0
onset of action ([1]; MES, mice): quick onset of action
Percent of Specific Binding, GABAA (GABAA receptors): 6%
Percent of Specific Binding, BDZ [2]: 12%

Cc1ccc(-n2c(-c3cccc(Cl)c3)nn(CN3CCN(c4ccccc4)CC3)c2=S)cc1 [Compound 23a, 5-(3-Chlorophenyl)-4-(4-methylphenyl)-2-[(4-phenylpiperazin-1-yl)methyl]-2,4-dihydro-3H-1,2,4-triazole-3-thione]
p/t, number of animals protected against MES-induced seizures / number tested ([1]; pretreatment time 15 min, mice): 0/8
p/t, number of animals protected against MES-induced seizures / number tested ([1]; pretreatment time 30 min, mice): 0/8
p/t, number of animals protected against MES-induced seizures / number tested ([1]; pretreatment time 60 min, mice): 0/8
p/t, number of animals protected against MES-induced seizures / number tested [1, 3]: 0/8
responders at 300 mg/kg [1, 4]: 0%
responders at 300 mg/kg [1, 5]: 0%
responders at 300 mg/kg [1, 6]: 0%
responders at 300 mg/kg [1, 7]: 0%
Percent of Specific Binding, GABAA (GABAA receptors): 23%
Percent of Specific Binding, BDZ [2]: 7%

Cc1ccc(-n2c(-c3cccc(Cl)c3)nn(CN3CCN(c4ccc(F)cc4)CC3)c2=S)cc1 [Compound 24a, 5-(3-Chlorophenyl)-2-{[4-(4-fluorophenyl)piperazin-1-yl]methyl}-4-(4-methylphenyl)-2,4-dihydro-3H-1,2,4-triazole-3-thione]
p/t, number of animals protected against MES-induced seizures / number tested ([1]; pretreatment time 15 min, mice): 0/8
p/t, number of animals protected against MES-induced seizures / number tested ([1]; pretreatment time 30 min, mice): 0/8
p/t, number of animals protected against MES-induced seizures / number tested ([1]; pretreatment time 60 min, mice): 0/8
p/t, number of animals protected against MES-induced seizures / number tested [1, 3]: 0/8
responders at 300 mg/kg [1, 4]: 0%
responders at 300 mg/kg [1, 5]: 0%
responders at 300 mg/kg [1, 6]: 0%
responders at 300 mg/kg [1, 7]: 0%
Percent of Specific Binding, GABAA (GABAA receptors): 21%
Percent of Specific Binding, BDZ [2]: 13%

CN1C(=O)CN=C(c2ccccc2)c2cc(Cl)ccc21 [Diazepam, reference compound]
Percent of Specific Binding, BDZ [2]: 83%

Cc1ccc(-c2nc3ccc(C)cn3c2CC(=O)N(C)C)cc1 [Zolpidem, reference compound]
Percent of Specific Binding, BDZ [2]: 73%
